The record followed here is US20070213359A1 (ACADIA Pharmaceuticals Inc., priority 2005, published 2007).

Molecules are shown by their SMILES.

For one assay, the target named is Ghrelin receptor (Homo sapiens, UniProt Q92847). Kind of assay: Receptor Selection and Amplification Technology (R-SAT) assay. In kind it is cell-based. On the set-up: expressed in transfected cells; host or cells: NIH3T3. As to conditions: negative logarithm of ligand concentration causing 50% inhibition of constitutive receptor response; transfected NIH3T3 cells; '—' not defined (nd used separately); read-out: RSAT pIC50 (converted).
Sequence of Ghrelin receptor (Q92847 whole entry): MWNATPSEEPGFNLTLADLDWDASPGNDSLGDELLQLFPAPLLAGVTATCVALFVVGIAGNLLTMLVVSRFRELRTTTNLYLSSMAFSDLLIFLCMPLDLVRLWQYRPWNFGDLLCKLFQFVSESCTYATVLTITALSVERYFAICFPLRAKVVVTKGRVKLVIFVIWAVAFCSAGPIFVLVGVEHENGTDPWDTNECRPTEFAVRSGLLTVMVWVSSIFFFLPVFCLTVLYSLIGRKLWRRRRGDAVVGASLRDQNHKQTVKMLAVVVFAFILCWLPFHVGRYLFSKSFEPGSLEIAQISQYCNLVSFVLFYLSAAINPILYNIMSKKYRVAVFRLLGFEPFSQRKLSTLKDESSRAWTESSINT
Regarding `CCCCC(=O)c1cn(CCCN2CCC(Oc3ccc(F)cc3)CC2)c2ccc(OC)cc12`, the IC50 is 0.1 µM.
In the case of `CCCOC1CCN(CCCn2cc(C(=O)CC(C)C)c3ccccc32)CC1`, the IC50 is 0.126 µM.
Same read-out and setting: the figure for `CCCCC(=O)c1cn(CCCN2C3CCC2CC(Oc2ccc(Cl)cc2)C3)c2ccc(OC)cc12` (stereo not shown) is 0.126 µM; for `COc1cccc2c(C(C)=O)cn(CCCN3CCC(O)(Cc4ccccc4)CC3)c12` it is 0.126 µM.
On to `CCCCC(=O)c1cn(CCCN2CCC(OCCC)CC2)c2ccc(OC)cc12`, for which the IC50 was 0.126 µM.
As for `O=C(c1cn(CCCN2CCN(Cc3ccc(Cl)cc3Cl)CC2)c2ncccc12)C(F)(F)F`, the IC50 was 0.126 µM.
As to `CCCCC(=O)c1cn(CCCN2CCC3c4cc(OC)ccc4NC3C2)c2ccc(OC)cc12` (stereo not shown), the IC50 was 0.126 µM.
On the same count and under the same terms, next, `COc1cccc2c(C(=O)NCC(C)C)cn(CCCN3CCC(c4nc(-c5ccncc5)no4)CC3)c12`: 0.158 µM; `CCc1cccc2c(C(C)=O)cn(CCCN3CCN(c4ncc(C(F)(F)F)cc4Cl)CC3)c12`: 0.158 µM; `COc1ccc2c(C(C)=O)cn(CCCN3CCC(Oc4ccc(F)cc4)CC3)c2c1`: 0.158 µM.
The same measure, in the same setting: the figure for `CCCCC(=O)c1cn(CCCN2CCC(CCCC)CC2)c2ccc(OC)cc12` is 0.158 µM; for `CCC(=O)c1cn(CCCN2CCC(c3nc4ccccc4s3)CC2)c2ccccc12` it is 0.158 µM.
On to `COc1cccc2c(C(C)=O)cn(CC(C)CN3CCN(c4ncc(C(F)(F)F)cc4Cl)CC3)c12` (stereo not shown), for which the IC50 was 0.158 µM.
`CCc1cccc2c(C(C)=O)cn(CCCNC3Cc4ccccc4C3)c12`: the IC50 was 0.158 µM.
The same measure, in the same setting: the figure for `CC(C)CC(=O)c1cn(CCCN2C3CCC2CC(OC2=CC=C(Cl)CC2)C3)c2ccccc12` (stereo not shown) is 0.158 µM; for `CC(=O)c1cn(CCCN2CCN(Cc3ccc(Cl)cc3Cl)CC2)c2c(C)cccc12` it is 0.158 µM.
On the same count and under the same terms, next, `CC(=O)c1cn(CCCN2CCC(Oc3ccc(F)cc3)CC2)c2ccc(Br)cc12`: 0.158 µM; `CC(C)CC(=O)c1cn(CCCN2C3CCC2CC(OCC2CC2)C3)c2ccccc12` (stereo not shown): 0.158 µM; `COc1ccc2c(C(C)=O)cn(CCCN3C4CCC3CC(OCC3CC3)C4)c2c1` (stereo not shown): 0.158 µM.
Still for that read-out and setting: the figure for `COc1cccc2c(C(C)=O)cn(CCCN3CCN(C(C)c4ccccc4)CC3)c12` (stereo not shown) is 0.158 µM; for `COc1cccc2c(C(C)=O)cn(CC(C)CN3CCN(Cc4ccc(Cl)cc4Cl)CC3)c12` (stereo not shown) it is 0.2 µM; for `CC(=O)c1cn(CCCN2CCC(c3nc(-c4cccnc4)no3)CC2)c2c(C)cccc12` it is 0.2 µM.
With `CC(=O)c1cn(CC(O)CN2CCC(c3nc4ccccc4s3)CC2)c2ccccc12` (stereo not shown), the IC50 was 0.2 µM.
Take `CC(=O)c1cn(CCCN2CCN(CCOc3ccccc3)CC2)c2c(Cl)cccc12`: the IC50 was 0.2 µM.
For the compound `CCCCC(=O)c1cn(CCCN2C3CCC2CC(OCC2CC2)C3)c2ccc(OC)cc12` (stereo not shown), the IC50 is 0.2 µM.
On the same count and under the same terms, the figure for `CCc1cccc2c(C(C)=O)cn(CCCN3C4CCC3CC(Oc3ccc(F)cc3)C4)c12` (stereo not shown) is 0.2 µM.
`CC(=O)c1cn(CC(O)CN2CCC(Oc3ccc(F)cc3)CC2)c2ccccc12` (stereo not shown): the IC50 was 0.2 µM.
Take `COc1ccc2c(C(C)=O)cn(CCCN3CCC(Oc4ccccc4Cl)CC3)c2c1`: the IC50 was 0.251 µM.
The same measure, in the same setting: the figure for `CC(=O)c1cn(CCN2C3CCC2CC(OCC2CC2)C3)c2ccccc12` (stereo not shown) is 0.251 µM.
The same measure, in the same setting: next, `CC(=O)c1cn(CCCN2CCN(C(C)c3ccccc3)CC2)c2cc(Br)ccc12` (stereo not shown): 0.251 µM; `CC(=O)c1cn(CCCN2C3CCC2CC(OCC2CC2)C3)c2ccc(Br)cc12` (stereo not shown): 0.251 µM.
Regarding `CCCON1CCN(CCCn2cc(C(=O)C(F)(F)F)c3ccccc32)CC1`, the IC50 was 0.251 µM.

The assay is the same for the next values; noted with them: percent inhibition at saturating ligand, normalized to reference ligand Substance P analog = 100%.
Regarding `COc1cccc2c(C(=O)NCC(C)C)cn(CCCN3CCC(c4nc(-c5ccncc5)no4)CC3)c12`, the “RSAT Eff(%)” value is given as 93%.

Staying with this assay, now noted: percent inhibition at saturating ligand, normalized to reference ligand Substance P analog = 100%; read-out: RSAT Eff(%).
`CCCOC1CCN(CCCn2cc(C(=O)CC(C)C)c3ccccc32)CC1`: the Emax was 81%.
With `CCCCC(=O)c1cn(CCCN2C3CCC2CC(Oc2ccc(Cl)cc2)C3)c2ccc(OC)cc12` (stereo not shown), the Emax was 110%.
In the case of `COc1cccc2c(C(C)=O)cn(CCCN3CCC(O)(Cc4ccccc4)CC3)c12`, the Emax stood at 106%.
For the compound `CCCCC(=O)c1cn(CCCN2CCC(OCCC)CC2)c2ccc(OC)cc12`, the Emax is 114%.
As to `O=C(c1cn(CCCN2CCN(Cc3ccc(Cl)cc3Cl)CC2)c2ncccc12)C(F)(F)F`, the Emax turned out to be 78%.
`CCCCC(=O)c1cn(CCCN2CCC3c4cc(OC)ccc4NC3C2)c2ccc(OC)cc12` (stereo not shown): the Emax amounted to 91%.
The same measure, in the same setting: the figure for `CCc1cccc2c(C(C)=O)cn(CCCN3CCN(c4ncc(C(F)(F)F)cc4Cl)CC3)c12` is 90%.
On to `COc1ccc2c(C(C)=O)cn(CCCN3CCC(Oc4ccc(F)cc4)CC3)c2c1`, for which the Emax was 70%.
Same read-out and setting: the figure for `CCCCC(=O)c1cn(CCCN2CCC(CCCC)CC2)c2ccc(OC)cc12` is 104%; for `CCC(=O)c1cn(CCCN2CCC(c3nc4ccccc4s3)CC2)c2ccccc12` it is 104%.
`COc1cccc2c(C(C)=O)cn(CC(C)CN3CCN(c4ncc(C(F)(F)F)cc4Cl)CC3)c12` (stereo not shown): the Emax was found to be 95%.
Still for that read-out and setting: next, `CCc1cccc2c(C(C)=O)cn(CCCNC3Cc4ccccc4C3)c12`: 98%; `CC(=O)c1cn(CCCN2CCN(Cc3ccc(Cl)cc3Cl)CC2)c2c(C)cccc12`: 120%.
With `CC(=O)c1cn(CCCN2CCC(Oc3ccc(F)cc3)CC2)c2ccc(Br)cc12`, the Emax was found to be 75%.
Regarding `CC(C)CC(=O)c1cn(CCCN2C3CCC2CC(OCC2CC2)C3)c2ccccc12` (stereo not shown), the Emax worked out at 129%.
As for `COc1ccc2c(C(C)=O)cn(CCCN3C4CCC3CC(OCC3CC3)C4)c2c1` (stereo not shown), the Emax was 93%.
The same measure, in the same setting: the figure for `COc1cccc2c(C(C)=O)cn(CCCN3CCN(C(C)c4ccccc4)CC3)c12` (stereo not shown) is 114%.
For `COc1cccc2c(C(C)=O)cn(CC(C)CN3CCN(Cc4ccc(Cl)cc4Cl)CC3)c12` (stereo not shown), the Emax worked out at 78%.
For `CC(=O)c1cn(CCCN2CCC(c3nc(-c4cccnc4)no3)CC2)c2c(C)cccc12`, the Emax turned out to be 103%.
In the case of `CC(=O)c1cn(CC(O)CN2CCC(c3nc4ccccc4s3)CC2)c2ccccc12` (stereo not shown), the Emax worked out at 58%.
For `CC(=O)c1cn(CCCN2CCN(CCOc3ccccc3)CC2)c2c(Cl)cccc12`, the Emax turned out to be 91%.
With `CCc1cccc2c(C(C)=O)cn(CCCN3C4CCC3CC(Oc3ccc(F)cc3)C4)c12` (stereo not shown), the Emax stood at 98%.
On the same count and under the same terms, next, `CC(=O)c1cn(CC(O)CN2CCC(Oc3ccc(F)cc3)CC2)c2ccccc12` (stereo not shown): 74%; `COc1ccc2c(C(C)=O)cn(CCCN3CCC(Oc4ccccc4Cl)CC3)c2c1`: 88%.
Turning to `CC(=O)c1cn(CCN2C3CCC2CC(OCC2CC2)C3)c2ccccc12` (stereo not shown), the Emax came out at 54%.
Consider `CC(=O)c1cn(CCCN2CCN(C(C)c3ccccc3)CC2)c2cc(Br)ccc12` (stereo not shown), for which the Emax worked out at 93%.
On to `CC(=O)c1cn(CCCN2C3CCC2CC(OCC2CC2)C3)c2ccc(Br)cc12` (stereo not shown), for which the Emax was determined as 102%.
`CCCON1CCN(CCCn2cc(C(=O)C(F)(F)F)c3ccccc32)CC1`: the Emax was 99%.

The assay is the same for the next values; noted with them: read-out: RSAT Eff(%).
`CCCCC(=O)c1cn(CCCN2CCC(Oc3ccc(F)cc3)CC2)c2ccc(OC)cc12`: the Emax was 91%.
As for `CC(C)CC(=O)c1cn(CCCN2C3CCC2CC(OC2=CC=C(Cl)CC2)C3)c2ccccc12` (stereo not shown), the Emax turned out to be 137%.
For `CCCCC(=O)c1cn(CCCN2C3CCC2CC(OCC2CC2)C3)c2ccc(OC)cc12` (stereo not shown), the Emax is 132%.
